Tested on: 596521-263-R-J1-PDC complex spheroid growth
Assay: Anticancer human tumor 596521-263-R-J1-PDC patient-derived soft tissue sarcoma cell line growth inhibition [Asc]
Settings: for IC50: curve of first compound; for viability, T/C: stronger effect = lower value
How it was run: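 Complex solid-tumor spheroids incorporating human endothelial and mesenchymal stem cells received single agents or combinations over half-log dilution ranges anchored to clinical Cmax.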
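Note: spheroids exposed to compounds for 7 days.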

For `NC(=O)C(=Cn1cnc(-c2cc(C(F)(F)F)cc(C(F)(F)F)c2)n1)c1cncnc1` + Cc1c(S(C)(=O)=O)c(-c2cc(F)cc(N3CCN(c4ccc(NS(=O)(=O)c5ccc(NC(CCN6CCC(C(=O)OCCCP(=O)(O)O)CC6)CSc6ccccc6)c(S(=O)(=O)C(F)(F)F)c5)cc4)CC3)c2)c(-c2ccc(Cl)cc2)n1C(C)C, the IC50 (second compound 0.0316 µM) was 27.2 nM, the IC50 (second compound 0.1 µM) was 25.1 nM and the IC50 (second compound 0.316 µM) was 18.8 nM. For the same molecule, the IC50 (second compound 1 µM) was 15.5 nM, the IC50 (second compound 3.16 µM) was 8.57 nM and the IC50 (second compound 10 µM) was less than 0.949 nM. It also gave a viability, T/C (second compound 0.0316 µM, first compound 0.000949 µM) of 98.4%, a viability, T/C (second compound 0.0316 µM, first compound 0.003 µM) of 101% and a viability, T/C (second compound 0.0316 µM, first compound 0.00949 µM) of 80.7%. The viability, T/C (second compound 0.0316 µM, first compound 0.03 µM) was 49.4%, the viability, T/C (second compound 0.0316 µM, first compound 0.0949 µM) was 10.3% and the viability, T/C (second compound 0.0316 µM, first compound 0.3 µM) was 4.54%. For the same molecule, the viability, T/C (second compound 0.1 µM, first compound 0.000949 µM) was 84.2%, the viability, T/C (second compound 0.1 µM, first compound 0.003 µM) was 94.9% and the viability, T/C (second compound 0.1 µM, first compound 0.00949 µM) was 71.8%. For the same molecule, the viability, T/C (second compound 0.1 µM, first compound 0.03 µM) was 48.5%, the viability, T/C (second compound 0.1 µM, first compound 0.0949 µM) was 6.86% and the viability, T/C (second compound 0.1 µM, first compound 0.3 µM) was 2.64%. For the same molecule, the viability, T/C (second compound 0.316 µM, first compound 0.000949 µM) was 94.8%, the viability, T/C (second compound 0.316 µM, first compound 0.003 µM) was 82.6% and the viability, T/C (second compound 0.316 µM, first compound 0.00949 µM) was 71.9%. For the same molecule, the viability, T/C (second compound 0.316 µM, first compound 0.03 µM) was 36.9%, the viability, T/C (second compound 0.316 µM, first compound 0.0949 µM) was 5.33% and the viability, T/C (second compound 0.316 µM, first compound 0.3 µM) was 1.97%. It also gave a viability, T/C (second compound 1 µM, first compound 0.000949 µM) of 76%, a viability, T/C (second compound 1 µM, first compound 0.003 µM) of 80.1% and a viability, T/C (second compound 1 µM, first compound 0.00949 µM) of 57.9%. It also gave a viability, T/C (second compound 1 µM, first compound 0.03 µM) of 37.2%, a viability, T/C (second compound 1 µM, first compound 0.0949 µM) of 3.95% and a viability, T/C (second compound 1 µM, first compound 0.3 µM) of 1.71%. For the same molecule, the viability, T/C (second compound 3.16 µM, first compound 0.000949 µM) was 68.7%, the viability, T/C (second compound 3.16 µM, first compound 0.003 µM) was 57.7% and the viability, T/C (second compound 3.16 µM, first compound 0.00949 µM) was 50.6%. The viability, T/C (second compound 3.16 µM, first compound 0.03 µM) was 21.3%, the viability, T/C (second compound 3.16 µM, first compound 0.0949 µM) was 3.51% and the viability, T/C (second compound 3.16 µM, first compound 0.3 µM) was 1.52%. The viability, T/C (second compound 10 µM, first compound 0.000949 µM) was 47.4%, the viability, T/C (second compound 10 µM, first compound 0.003 µM) was 51.3% and the viability, T/C (second compound 10 µM, first compound 0.00949 µM) was 35.7%. It also gave a viability, T/C (second compound 10 µM, first compound 0.03 µM) of 23.6%, a viability, T/C (second compound 10 µM, first compound 0.0949 µM) of 3.04% and a viability, T/C (second compound 10 µM, first compound 0.3 µM) of 1.13%.
